Read-outs that look alike come from different tables or passages of the source.
Experiments:
[1] = test system: K562/R7 human cancer cells; assay: Cellular polyamine content by HPLC, K562/R7; assay type: cell-based; settings: DFMO 1 mM, Poly-SPM 20 μM
Experimental: (§1) To determine if the cytotoxicity and inhibition of polyamine transport evoked by the polyamine conjugates was,associated with depletion of cell polyamine contents, additional experiments were conducted which used HPLC to measure contents of PUT, SPD, and SPM in human uterine sarcoma and leukemia cells in the presence of poly-SPM, DFMO, and combined treatment with poly-SPM and DFMO. The latter combination was tested to determine if blockade of both transport and synthesis would promote greater decreases in polyamine content than either intervention alone. […] Further studies are planned to obtain further information regarding interactions between these pathways and their suitabilities as pharmacologic targets.

[2] = test system: MES-SA human uterine sarcoma cells; assay: Cellular content of MDR substrates (vinblastine, Taxol), MES-SA; assay type: cell-based; settings: DFMO (1 mM)
[3] = test system: DX5 human uterine sarcoma cells (MDR-positive); assay: Cellular content of MDR substrates (vinblastine, Taxol), DX5; assay type: cell-based; settings: DFMO (1 mM)
Experimental: Complimentary experiments were conducted to determine whether the polyamine uptake inhibitors differentially affected the cytotoxicity and cellular uptake of vinblastine in MDR-negative and MDR-positive uterine sarcoma cells.

K562 human cancer cells = assay: Cellular polyamine content by HPLC, K562; assay type: cell-based; settings: DFMO 1 mM, Poly-SPM 20 μM
Experimental: as §1

[4] = test system: R7 cells (MDR-positive variant of K567); assay: Cytotoxicity, R7 leukemia cells; settings: DFMO at 1 mM concentration; MDR-positive variant of K562
[5] = test system: non-mutant polyamine transport L1210 cells; settings: DFMO treatment; Ask et al.; cited from earlier work
[6] = test system: DX5 human uterine sarcoma cells (MDR-positive); assay: 14C-polyamine uptake, DX5; assay type: cell-based; settings: DFMO (1 mM), 24 hours
Experimental: (§2) Additional studies were conducted to determine whether MES-SA and DX5 cell lines express a polyamine transport system, and, if so, whether this system(s) was inhibited by the poly-PUT and poly-SPM conjugate. […] In the current studies, ^14 C-SPD was added in concentrations of 3 μM and cells were incubated for 30 minutes at selected temperatures (4° and 37° C). The cells were rinsed with Hanks buffer, digested for 1 hour in 1N NaOH, and cell-associated radioactivity was determined. ^14 C-SPD uptake rate was normalized to protein content. Specific, carrier-mediated polyamine uptake was […] determined at […].
(§3) In many cells, DFMO increases polyamine transport. This is believed to be a compensatory mechanism that protects these cells from polyamine depletion. […] We therefore examined the impact of DFMO on polyamine transport rate and on vinblastine accumulation and cytotoxicity in MES-SA and DX5 cells.

[7] = test system: DX5 human uterine sarcoma cells (MDR-positive); assay: MTT cytotoxicity assay, DX5; settings: for IC50: Homo sapiens
Experimental: (§4) Cytotoxicity was assessed using the MTT assay in MES-SA and DX5 uterine sarcoma cell lines after a 24 hours exposure to ascending concentrations of the putrescine polymeric conjugates (poly-PUT conjugates) or its vehicle.
(§5) Complimentary experiments were conducted to determine whether the polyamine uptake inhibitors differentially affected the cytotoxicity and cellular uptake of vinblastine in MDR-negative and MDR-positive uterine sarcoma cells. […] The MTT assay was used to quantify the IC50 for vinblastine cytotoxicity in MES-SA and DX5 cells in the presence and absence of treatment with 100 μM poly-PUT. The calculation of cytotoxicity in these experiments accounted for the lethality associated with use of the conjugate alone.

[8] = test system: K567 Human leukemia cells; assay: Cytotoxicity, K567 leukemia cells; settings: DFMO at 1 mM concentration; printed K562
DX5 human cancer cells = assay: Cellular polyamine content by HPLC, DX5; assay type: cell-based; settings: DFMO 1 mM, Poly-SPM 20 μM
Experimental: as §1

[9] = test system: cultured pulmonary artery smooth muscle cells treated with DFMO; assay: 14C-polyamine uptake in DFMO-treated pulmonary artery smooth muscle cells; settings: Bos taurus, 24 h, read-out: increase of polyamine uptake relative to control cells
Experimental: DFMO treatment consisted of the addition of 1 mM of DFMO to the cultures followed by a 24 hour incubation period.
After DFMO treatment and incubation, the respective conjugates were added in amounts ranging from about 0 to 20 μM simultaneously with 3 μM of a specific ^14 C-polyamine and the cells allowed to incubate for 30 minutes. After incubation, the content of cell associated radioactivity was determined.

[10] = test system: cultured pulmonary artery smooth muscle cells; assay: Hypoxia-induced fibronectin synthesis; assay type: cell-based, bovine
Description: This experiment was effected because hypoxic pulmonary hypertension is accompanied by the deposition of large quantities of fibronectin around pulmonary arteries. Therefore, there is some belief by researchers, including the present inventors, that the increased deposition of this protein may be an important cause of the sustained elevation in pulmonary arterial blood pressure. Also, hypoxia seems to cause pulmonary hypertension by a mechanism related to increased polyamine transport rather than increased de novo polyamine synthesis.

[11] = test system: MES-SA human cancer cells; assay: Cellular polyamine content by HPLC, MES-SA; assay type: cell-based; settings: DFMO 1 mM, Poly-SPM 20 μM
Experimental: as §1

[12] = test system: L1210-MGBGr leukemic cell line deficient in polyamine transport; settings: polyamine synthesis blocked by DFMO; Ask et al.; cited from earlier work
[13] = test system: MES-SA human uterine sarcoma cells; assay: 14C-polyamine uptake, MES-SA; assay type: cell-based; settings: DFMO (1 mM), 24 hours
Experimental: as §2, §3

[14] = test system: MES-SA human uterine sarcoma cells; assay: MTT cytotoxicity assay, MES-SA
Experimental: as §4, §5

[15] = test system: DX5 human uterine sarcoma cells (MDR-positive)
Experimental: as §4, §5

[16] = test system: MES-SA human uterine sarcoma cells
Experimental: as §4, §5

[17] = test system: cultured pulmonary artery smooth muscle cells; assay: 14C-polyamine uptake in cultured pulmonary artery smooth muscle cells; assay type: cell-based, bovine
Experimental: After this 30 minute period the cell-associated radioactivity was then measured to determine the uptake of polyamine by the cell culture.
Cell associated radioactivity was then measured.

[18] = conjugate 0-20 μM with 3 μM 14C-polyamine, 30 minutes

In the case of `NCCCC(N)(C(=O)O)C(F)F` (stereo not drawn) [DFMO, α-difluoro-methylornithine], the “Cellular Polyamine Content, SPD” value [1] is reported as 15809 pmoles/mg protein, the “Cellular Polyamine Content, SPM” value [1] is reported as 15083 pmoles/mg protein and the “3H-Vinblastine Content” value [2] is reported as 840 ± 28 pmoles/mg protein. For the same compound, the “3H-Vinblastine Content” value [3] was 195 ± 8 pmoles/mg protein, the “Cellular Polyamine Content, SPD” value (K562 human cancer cells) was 15791 pmoles/mg protein and the “Cellular Polyamine Content, SPM” value (K562 human cancer cells) was 17024 pmoles/mg protein. The toxicity to cells [4] was “not toxic”, the “increase in survival time” value [5] was “two” and the “14C-Polyamine uptake, PUT” value [6] was 1.1 ± 0.04 pmoles/min/mg protein. For the same compound, the “14C-Polyamine uptake, SPD” value [6] was 1.6 ± .08 pmoles/min/mg protein, the toxicity to cells ([7]; DFMO at 1 mM concentration, MDR-positive variant of MES-SA) was “not toxic” and the “effect of DFMO treatment on sensitivity to vinblastine” value ([7]; DFMO treatment, vinblastine concentrations up to 5 μM) was “complete resistance”. The toxicity to cells [8] was “not toxic”, the “Cellular Polyamine Content, SPD” value (DX5 human cancer cells) was 4191 pmoles/mg protein and the “Cellular Polyamine Content, SPM” value (DX5 human cancer cells) was 6831 pmoles/mg protein. The activation at 1000 µM [9] was about 350%, the “Fibronectin Synthesis” value ([10]; Hypoxic) was 0.09 OD/mg protein and the “Fibronectin Synthesis” value ([10]; Normoxic) was 0.07 OD/mg protein. The “Cellular Polyamine Content, SPD” value [11] was 6100 pmoles/mg protein, the “Cellular Polyamine Content, SPM” value [11] was 8824 pmoles/mg protein and the cure rate [12] was 33%. The “14C-Polyamine uptake, PUT” value [13] was 0.67 ± 0.01 pmoles/min/mg protein, the “14C-Polyamine uptake, SPD” value [13] was 7.3 ± .06 pmoles/min/mg protein and the toxicity to cells ([14]; DFMO at 1 mM concentration) was “not toxic”. For the same compound, the “effect of DFMO treatment on the IC50 value for vinblastine” value ([14]; DFMO treatment) was “failed to affect”.

For `CC[C@]1(O)C[C@@H]2CN(CCc3c([nH]c4ccccc34)[C@@](C(=O)OC)(c3cc4c(cc3OC)N(C)[C@H]3[C@@](O)(C(=O)OC)[C@H](OC(C)=O)[C@]5(CC)C=CCN6CC[C@]43[C@@H]65)C2)C1` [Vinblastine], the IC50 [15] was 0.116 µM, the IC50 [16] was 0.007 µM and the IC50 ([7]; read-out: IC50, vinblastine cytotoxicity) was 0.6 µM. The IC50 ([7]; read-out: IC50 for vinblastine) was 0.5 µM and the IC50 ([14]; Homo sapiens, MES-SA, read-out: IC50, vinblastine cytotoxicity) was 0.005 µM.

In the case of `COc1ccc(CCN(C)CCCC(C#N)(c2ccc(OC)c(OC)c2)C(C)C)cc1OC` (stereo not drawn) [verapamil], the “suppression of polyamine transport” value ([17]; agents known to inhibit the MDR, data not shown, 30 min) is reported as 50-75%.

In the case of “Spd-BSA: conjugate between bovine serum albumin and spermidine using glutaraldehyde as a coupling agent”, the “uptake of 14C-putrescine” value [17, 18] is reported as “inhibited” and the “uptake of 14C-spermidine” value [17, 18] is reported as “inhibited”.

Source: patent US5456908A, “Polyamine-polyamine and polyamine-protein transport inhibitor conjugates and their use as pharmaceuticals and in research relating to polyamine transport” (priority 1994, dated 1995)
